Patent publication US4558007A, “Process for detecting LDHk isozyme activity in human serum for use as a diagnostic aid and for monitoring response to cancer therapy” (Health Research, Inc. (Roswell Park Divison), priority 1983, dated 1985)

Legend:
LDHk [1] = conditions: background description of the isozyme; cited from earlier work
[2] = tested on: LDHk detected in human tumor tissues; conditions: Anderson et al. 1981 study of human carcinomas; cited from earlier work
LDHk [3] = assay: Inhibition of LDHk by dinucleoside tetraphosphates; assay type: biochemical; conditions: for Mode of inhibition of LDHk versus NAD+: competition with NAD+; for Ki: property shared by LDHk from cells transformed by Ki-MSV, human tumors, human liver, rat retina
human serum LDHk = assay: Inhibition of serum LDHk (gel lanes stained in presence of inhibitor); assay type: biochemical; conditions: 3×10^-5 M in staining mixture, 4 1/2 hours
Protocol: A reverse polarity gel system was used to isolate the LDHk isozyme which has a positive charge at pH 8.9 and migrates towards the cathode. The gel system was based on an imidazole/borate buffer system. The samples were analyzed on 3 mm thick, 20 well, 5.5% polyacrylamide slab gels photopolymerized with a riboflavin catalyst in the absence of persulfate. The gels were cast with a 0.15M potassium tetraborate buffer at pH 8.3. The lower reservoir buffer was 0.10M potassium tetraborate, pH 8.3, and the upper reservoir buffer contained 0.08M imidazole and 0.02M boric acid, pH 8.9. Gels were run an average of 16 hours at a voltage of 220 V, with cooling provided by circulating ice water.
Staining was done using the nitroblue tetrazolium/phenazine methosulfate composition of Dietz and Lubrano as described previously using 1M Tris buffer, pH 8.0. The staining mixture was supplemented with 2% glycerol to complex with the borate ions. These gels were stained in the dar at a temperature of about 37° C. for 41/2 hours in an Ehrlenmeyer suction flask under a nitrogen atmosphere. After staining, the gels were fixed, scanned to measure the amount of stain, and stored as described above.
An inhibition experiment was conducted on the serum LDHk. […]

SMILES	Inhibition of LDHk (LDHk [1])	Inhibition of LDHk of human tumor tissues [2]	Mode of inhibition of LDHk versus NAD+ (LDHk [3])	Ki (LDHk [3])	Inhibition of human serum LDHk activity (human serum LDHk)
Nc1nc2c(ncn2[C@@H]2O[C@H](COP(=O)(O)OP(=O)(O)OP(=O)(O)O)[C@@H](O)[C@H]2O)c(=O)[nH]1 [GTP, guanosine triphosphate]	inhibited	inhibited			
Nc1ncnc2c1ncn2[C@@H]1O[C@H](COP(=O)(O)OP(=O)(O)OP(=O)(O)OP(=O)(O)OC[C@H]2O[C@@H](n3cnc4c(N)ncnc43)[C@H](O)[C@@H]2O)[C@@H](O)[C@H]1O [diadenosine tetraphosphate, 5',5' diadenosine tetraphosphate]	more strongly		not competitive	~50 µM	not inhibited
Nc1nc2c(ncn2[C@@H]2O[C@H](COP(=O)(O)OP(=O)(O)OP(=O)(O)OP(=O)(O)OC[C@H]3O[C@@H](n4cnc5c(=O)[nH]c(N)nc54)[C@H](O)[C@@H]3O)[C@@H](O)[C@H]2O)c(=O)[nH]1 [diguanosine tetraphosphate, 5',5' diguanosine tetraphosphate]	more strongly		not competitive	~50 µM	
